Measured values taken from PubChem BioAssay AID2060890 (Molecular Pharmacology Branch, DTP, NCI, 2025).

Tested on: LG0703-F948-PDC complex spheroid viability
Test: Anticancer human tumor LG0703-F948-PDC patient-derived lung adenocarcinoma cell line growth inhibition [RAS]
Conditions: for IC50: curve of first compound; for viability, T/C: stronger effect = lower value
Procedure, shortened: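 Tumour cells grown as complex spheroids with HUVEC endothelial cells and mesenchymal stem cells, treated with RAS pathway inhibitor combinations. Each agent spans half-log steps from near clinical Cmax, or 10 microM where Cmax is unknown.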
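Further: spheroids exposed to agents for 7 days.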
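Wherever viability, T/C is given: 100% = DMSO vehicle wells.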

CC1(C)CCC(Nc2ncc(C(F)(F)F)c(-c3c[nH]c4c(P(C)(C)=O)c(C#N)ccc34)n2)CN1 (configuration not stated) + CCn1c(-c2cc(N3CCN(C)CC3)cnc2C(C)OC)c2c3cc(ccc31)-c1csc(n1)CC(NC(=O)C1CC1C)C(=O)N1CCCC(N1)C(=O)OCC(C)(C)C2
IC50 (second compound 0.000949 µM): > 300 nM
IC50 (second compound 0.003 µM): < 0.949 nM
IC50 (second compound 0.00949 µM): < 0.949 nM
IC50 (second compound 0.03 µM): < 0.949 nM
IC50 (second compound 0.0949 µM): < 0.949 nM
IC50 (second compound 0.3 µM): < 0.949 nM
viability, T/C (second compound 0.000949 µM, first compound 0.000949 µM): 70.9%
viability, T/C (second compound 0.000949 µM, first compound 0.003 µM): 58.2%
viability, T/C (second compound 0.000949 µM, first compound 0.00949 µM): 54.9%
viability, T/C (second compound 0.000949 µM, first compound 0.03 µM): 64.2%
viability, T/C (second compound 0.000949 µM, first compound 0.0949 µM): 69.8%
viability, T/C (second compound 0.000949 µM, first compound 0.3 µM): 66%
viability, T/C (second compound 0.003 µM, first compound 0.000949 µM): 50.5%
viability, T/C (second compound 0.003 µM, first compound 0.003 µM): 38.7%
viability, T/C (second compound 0.003 µM, first compound 0.00949 µM): 43.2%
viability, T/C (second compound 0.003 µM, first compound 0.03 µM): 39%
viability, T/C (second compound 0.003 µM, first compound 0.0949 µM): 40.1%
viability, T/C (second compound 0.003 µM, first compound 0.3 µM): 44.5%
viability, T/C (second compound 0.00949 µM, first compound 0.000949 µM): 27.3%
viability, T/C (second compound 0.00949 µM, first compound 0.003 µM): 26.4%
viability, T/C (second compound 0.00949 µM, first compound 0.00949 µM): 25.1%
viability, T/C (second compound 0.00949 µM, first compound 0.03 µM): 31.8%
viability, T/C (second compound 0.00949 µM, first compound 0.0949 µM): 26.6%
viability, T/C (second compound 0.00949 µM, first compound 0.3 µM): 33.8%
viability, T/C (second compound 0.03 µM, first compound 0.000949 µM): 15.2%
viability, T/C (second compound 0.03 µM, first compound 0.003 µM): 14.4%
viability, T/C (second compound 0.03 µM, first compound 0.00949 µM): 17.2%
viability, T/C (second compound 0.03 µM, first compound 0.03 µM): 19.4%
viability, T/C (second compound 0.03 µM, first compound 0.0949 µM): 18.3%
viability, T/C (second compound 0.03 µM, first compound 0.3 µM): 20.3%
viability, T/C (second compound 0.0949 µM, first compound 0.000949 µM): 12.3%
viability, T/C (second compound 0.0949 µM, first compound 0.003 µM): 11.9%
viability, T/C (second compound 0.0949 µM, first compound 0.00949 µM): 12.3%
viability, T/C (second compound 0.0949 µM, first compound 0.03 µM): 12.9%
viability, T/C (second compound 0.0949 µM, first compound 0.0949 µM): 14.1%
viability, T/C (second compound 0.0949 µM, first compound 0.3 µM): 9.28%
viability, T/C (second compound 0.3 µM, first compound 0.000949 µM): 9.53%
viability, T/C (second compound 0.3 µM, first compound 0.003 µM): 9.6%
viability, T/C (second compound 0.3 µM, first compound 0.00949 µM): 8.69%
viability, T/C (second compound 0.3 µM, first compound 0.03 µM): 12.3%
viability, T/C (second compound 0.3 µM, first compound 0.0949 µM): 12.7%
viability, T/C (second compound 0.3 µM, first compound 0.3 µM): 10.1%
